Reference: patent US20240108632A1, “PHARMACEUTICAL COMPOSITION FOR ADMINISTRATION AS OPHTHALMIC DROP TO PATIENT REQUIRING OPTIC NERVE PROTECTION” (PINOTBIO, INC., priority 2020, published 2024)
≈ marks a conversion by molar mass, not a printed value.

Key:
[1] = tested on: cynomolgus macaque model of glaucoma; assay: Retinal nerve fiber layer thickness by OCT in cynomolgus macaque model of glaucoma; assay type: in vivo
Protocol: (§1) Three weeks before the first laser trabeculoplasty, IOP was measured via a tomometer (SPHPR-320-61), once per week for three weeks. The first laser trabeculoplasty was performed in one eye for each macaque. Two weeks later, laser trabeculoplasty was repeated in the same eye (Week 0).
(§2) One week after the second laser trabeculoplasty (Week 1), IOP was measured and retinal nerve fiber layer (RNFL) thickness was measured via optical coherence tomography (OCT; RS3000 Advance, Nidek Co. Ltd., Gamagoori, Japan) (SPHPR- 320-58). The day after group assignment, the eyes were instilled with either vehicle, KR-67607 or brimonidine twice a day. On Day 1, the effect of treatment on IOP over time was measured before treatment and 1, 2, 4, and 8 hrs. after instillation. At the same time, blood samples were obtained. From the effects of dosing observed on Day 1, it was determined that 2 hrs. was a reasonable time time-to-test following instillation for subsequent observations.
(§3) Intraocular pressures were obtained at Weeks 2, 3, 4, 5, 7 and 9. Optical coherence tomography and color fundus photography (CFP) were performed at Weeks 1, 3, 5, 7, and 9 (SPHPR-320-56).

11β-HSD1 = 11β-HSD1 (Homo sapiens, UniProt P28845); conditions: known; cited from earlier work
DBA/2 mice = assay: Histology and immunostaining of retina and optic nerve head in glaucoma mouse model; conditions: after 16 weeks of drug treatment
Protocol: After drug administration was terminated, the mice's eyes were enucleated and tissues were analyzed (FIGS. 14 to 26).
The optic nerve papilla area was analyzed by H&E staining, Caspase-3, 9, and TUNEL staining in retinal tissue removed and fixed from eyes of mice after 16 weeks of drug treatment. […] To determine the degree of cell death in the damaged optic nerve papilla tissue, Caspase-3, 9 staining (FIGS. 15 and 16), an indicator of early apoptosis, and TUNEL staining (FIG. 17), an indicator of late apoptosis, were performed.

[2] = tested on: cynomolgus macaque model of glaucoma; assay: Intraocular pressure in cynomolgus macaque model of glaucoma (laser trabeculoplasty); assay type: in vivo; conditions: for maximum decrease of IOP, glaucomatous eye: 2 hours after instillation
Protocol: as §1, §2, §3
Following measurements at Week 9, G3 macaques was randomized into two groups based on IOP, and the effect of KR-67607 (1.5 mg/mL, 3.0 mg/mL) on IOP was evaluated.

Solubility by pH = assay type: physicochemical; conditions: stirred 12 hours
Protocol: 50 mL of pH 1 to 12 solution and tertiary purified water were taken precisely and placed in a 50 mL clear glass vial, and an excess amount (50 mg) of KR-67607 was weighed and added and stirred for 12 hours. Then, it was allowed to stand for 20 minutes to settle the undissolved excess of KR-67607, and the supernatant was taken and filtered through a 0.2 μm PVDF filter as a stock solution.
The standard was prepared by accurately weighing 15 mg of KR-67607, placing it in a 50 mL volumetric flask, using diluent (0.02 M potassium dihydrogen phosphate aqueous solution:acetonitrile=50:50 (v/v)) to completely dissolve/mark KR-67607, and filtering the liquid through a 0.45 μm PVDF filter as the standard.
The HPLC analysis conditions were as follows • Detector: ultraviolet-visible absorption spectrophotometer (measuring wavelength: 254 nm) • Column: 250×4.6 mm, 5μm, C18 packing column • Column temperature: 25±3° C. • Injection volume: 25 μL • Flow rate: 1 mL/min • Mobile Phase: Gradient

[3] = Solubility by HP-β-CD concentration at pH adjustment; assay type: physicochemical
Protocol: Various concentrations of HP-β-CD aqueous solutions were prepared by adding 1%, 2%, 3%, and 4% (w/v) of HP-β-CD to tertiary purified water (pH 5.5), pH 7.4 phosphate buffer, and 0.04 M NaOH aqueous solution (pH 12.5). An excess of KR-67607 was added to the above HP-β-CD solution and stirred for 24 hours, then the supernatant was collected and filtered through a 0.2 μm PVDF filter, and 1 mL was added to a 10 mL volumetric flask and labeled with methanol.
For the standard solution, 50 mg of KR-67607 was accurately weighed and placed in a 50 mL volumetric flask and completely dissolved/stained with methanol. 1, 2, 4, 6, 8, 10 mL of the standard solution was accurately taken and placed in a 20 mL volumetric flask, and the one labeled with methanol was used as the standard.

[4] = tested on: cynomolgus macaque model of glaucoma; assay: Funduscopy in cynomolgus macaque model of glaucoma; assay type: in vivo
Protocol: as §1, §2, §3

Sequence of 11β-HSD1 (P28845 whole entry, species assumed): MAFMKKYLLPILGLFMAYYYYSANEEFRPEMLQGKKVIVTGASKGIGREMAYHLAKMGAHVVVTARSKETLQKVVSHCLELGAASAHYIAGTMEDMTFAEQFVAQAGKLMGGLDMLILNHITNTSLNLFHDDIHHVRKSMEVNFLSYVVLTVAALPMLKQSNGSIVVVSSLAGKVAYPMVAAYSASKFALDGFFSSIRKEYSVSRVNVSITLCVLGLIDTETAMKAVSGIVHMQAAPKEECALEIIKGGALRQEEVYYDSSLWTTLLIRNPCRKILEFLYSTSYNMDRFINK

For CC1CN(CC(=O)NC2C3CC4CC2CC(C(N)=O)(C4)C3)S(=O)(=O)N(c2c(Cl)cc(C(F)(F)F)cc2Cl)C1 [KR-67607, (1s, 3R,4s,5S,7s)-4-(2-(6-(2,6-dichloro-4-(trifluoromethyl)phenyl)-4-methyl-1,1-dioxido-1,2,6-thiadiazinan-2-yl)acetamido)adamantane-1-carboxamide], the “RNFL thickness compared with vehicle treatment” value ([1]; 5 weeks, unpaired t-test, p<0.05) was “greater”, the “number of eyes with RNFL thickness greater than 50% compared to baseline” value ([1]; Week 9, 6 eyes per group) was 3 and the “RNFL thinning in glaucomatous eyes” value ([1]; repeated treatment, compared to vehicle-treated (G1)) was “significantly inhibited”. The “inhibitory effect on RNFL thinning relative to brimonidine” value ([1]; summary) was “greater than that of brimonidine”, the “inhibitory activity against 11β-HSD1” value (11β-HSD1) was “good inhibitory activity” and the “Brn3a expression in flat-mounted retinal tissue” value (DBA/2 mice) was “relatively increased”. The GABAergic amacrine cells (DBA/2 mice) was “relatively increased”, the “GFAP expression (activated astrocytes) in optic nerve” value (DBA/2 mice) was “less concentrated” and the “GLT-1 expression in retina” value (DBA/2 mice) was “no quantitative or qualitative difference”. For the same compound, the “degree of retinal ganglion cell death (caspase-3 and 9)” value (DBA/2 mice) was “relatively reduced”, the “glaucomatous histologic features of optic nerve papilla (H&E: cupping, nerve fiber layer thinning)” value (DBA/2 mice) was “alleviated” and the “loss of retinal ganglion cells (H&E)” value (DBA/2 mice) was “less loss”. For the same compound, the “number of Iba-1 positive microglia” value (DBA/2 mice) was “decreased”, the “number of caspase-3, 9 expressing and TUNEL-positive cells in optic nerve papillae” value (DBA/2 mice) was “significantly reduced” and the “maximum decrease of IOP, contralateral normal eye” value ([2]; Day 1 dosing, 2 hours after dosing) was “did not decrease”. For the same compound, the “maximum decrease of IOP, glaucomatous eye” value ([2]; Day 1 dosing) was 9.2±4.1 mmHg, the “effect on IOP (Extra dosing)” value ([2]; KR-67607 1.5 mg/mL, after Week 9) was “did not affect” and the “maximum decrease of IOP (Extra dosing)” value ([2]; KR-67607 3.0 mg/mL, 1 hour after instillation) was 12.0±2.8 mmHg. The “effect on trough IOP value” ([2]; glaucomatous eyes, repeated treatment twice a day, brimonidine tartrate 0.1%, KR-67607 1.5 mg/mL) was “did not significantly affect”, the “maximum decrease of IOP, normal eye” value ([2]; over weeks) was “did not decrease” and the “maximum decrease of IOP, glaucomatous eye” value ([2]; over weeks) was 10.4±2.2 mmHg. The “IOP-decreasing effect in glaucomatous eyes relative to brimonidine” value ([2]; summary) was “smaller than that of brimonidine”, the Solubility (Solubility by pH; Purified water) was 18.83 µg/mL (≈ 0.0315 mM) and the Solubility (Solubility by pH; pH 1 solution) was 47.83 µg/mL (≈ 0.0801 mM). For the same compound, the Solubility (Solubility by pH; pH 3 solution) was 46.08 µg/mL (≈ 0.0771 mM), the Solubility (Solubility by pH; pH 5 solution) was 42.52 µg/mL (≈ 0.0712 mM) and the Solubility (Solubility by pH; pH 6 solution) was 43.61 µg/mL (≈ 0.073 mM). It also gave a Solubility (Solubility by pH; pH 7 solution) of 43.77 µg/mL (≈ 0.0733 mM), a Solubility (Solubility by pH; pH 8 solution) of 41.95 µg/mL (≈ 0.0702 mM) and a Solubility (Solubility by pH; pH 9 solution) of 45.97 µg/mL (≈ 0.0769 mM). For the same compound, the Solubility (Solubility by pH; pH 10 solution) was 44.53 µg/mL (≈ 0.0745 mM), the Solubility (Solubility by pH; pH 12 solution) was 55.32 µg/mL (≈ 0.0926 mM) and the Solubility by HP-β-CD concentration ([3]; HP-β-CD 1.0 % w/v, 0.04M NaOH aqueous solution (pH 12.5)) was 3160 µg/mL (≈ 5.29 mM). The Solubility by HP-β-CD concentration ([3]; HP-β-CD 1.0 % w/v, phosphate buffer (pH 7.4)) was 2590 µg/mL (≈ 4.33 mM), the Solubility by HP-β-CD concentration ([3]; HP-β-CD 1.0 % w/v, purified water (pH 5.5)) was 2550 µg/mL (≈ 4.27 mM) and the Solubility by HP-β-CD concentration ([3]; HP-β-CD 2.0 % w/v, 0.04M NaOH aqueous solution (pH 12.5)) was 5720 µg/mL (≈ 9.57 mM). It also gave a Solubility by HP-β-CD concentration ([3]; HP-β-CD 2.0 % w/v, phosphate buffer (pH 7.4)) of 4290 µg/mL (≈ 7.18 mM), a Solubility by HP-β-CD concentration ([3]; HP-β-CD 2.0 % w/v, purified water (pH 5.5)) of 4230 µg/mL (≈ 7.08 mM) and a Solubility by HP-β-CD concentration ([3]; HP-β-CD 3.0 % w/v, 0.04M NaOH aqueous solution (pH 12.5)) of 7900 µg/mL (≈ 13.2 mM). It also gave a Solubility by HP-β-CD concentration ([3]; HP-β-CD 3.0 % w/v, phosphate buffer (pH 7.4)) of 6000 µg/mL (≈ 10 mM), a Solubility by HP-β-CD concentration ([3]; HP-β-CD 3.0 % w/v, purified water (pH 5.5)) of 6000 µg/mL (≈ 10 mM) and a Solubility by HP-β-CD concentration ([3]; HP-β-CD 4.0 % w/v, 0.04M NaOH aqueous solution (pH 12.5)) of 9610 µg/mL (≈ 16.1 mM). For the same compound, the Solubility by HP-β-CD concentration ([3]; HP-β-CD 4.0 % w/v, phosphate buffer (pH 7.4)) was 6790 µg/mL (≈ 11.4 mM), the Solubility by HP-β-CD concentration ([3]; HP-β-CD 4.0 % w/v, purified water (pH 5.5)) was 6910 µg/mL (≈ 11.6 mM) and the “animals with small optic discs compared to G1 in the glaucomatous eyes” value ([4]; Week 5) was “four of six animals”. For the same compound, the “animals with a small or lesser degree of cupping” value ([4]; Week 9) was “three animals”.
